Results taken from PMC10823475, “Design, Synthesis, and Evaluation of Inhibitors of Hedgehog Acyltransferase” (Journal of Medicinal Chemistry, 2024).
Several values for one entry are separate records, joined by “and”; a condition that tells them apart may be missing. Equal values may be shown once.

How the values were obtained:
purified HHAT = target: T1, purified HHAT (Homo sapiens, UniProt Q5VTY9); assay: Acyl-cLIP assay, inhibition of purified HHAT; type: biochemical; conditions: for IC50: purified HHAT, read-out: Acyl-cLIP Assay IC50 (CI95)
T1 construct: made in house
Procedure, shortened: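 Fluorescence polarization of FAM-labelled SHH N-terminal peptide palmitoylated by DDM-solubilized purified recombinant HHAT with palmitoyl-CoA, pH 6.5 MES buffer, read over 30 min. Initial rates normalized to DMSO and no-enzyme controls; IC50 from variable-slope sigmoidal fit of 1:1 serial dilutions; single-point % inhibition at 50 and 25 μM.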

[1] = MTS assay, cytotoxicity (72 h); type: cell-based; conditions: human, HEK293a SHH+ cells, 72 h; for CC50 at 72 h: read-out: MTS Assay (HEK293a SHH+) CC50 (CI95)
Procedure, shortened: (§1)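 Cells plated at 5000/well, cultured 24 h, then exposed to analogues (0.14–100 μM final) in DMEM/10% FBS for 72 h. MTS/PMS added for 3 h at 37 °C and absorbance read at 490 nm; data normalised to DMSO vehicle and puromycin (2 μg/mL) wells, curves fitted with a variable-slope sigmoidal model.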

HEK293a SHH+ cells = assay: MTS assay, cytotoxicity (72 h); type: cell-based
Procedure, shortened: as §1

[2] = Microsomal incubations, mouse liver microsomes; type: in vitro ADME; conditions: 1 μM
Experimental: (§2) Metabolic stability assays were performed using a Microlab Star liquid handling workstation (Hamilton Robotics, Bonaduz, Switzerland). Test compounds (1 μM, 1% DMSO) were preincubated at 37 °C for 10 min in 0.5 mg/mL female CD1 mouse and mixed gender human liver microsomes in 10 mM phosphate buffered saline (PBS; Sigma-Aldrich Company Ltd. (Dorset, UK)). Microsomes were purchased either from Sekisui XenoTech, LLC (Kansas City, USA) or BioreclamationIVT (Frankfurt Am Main, Germany). Reactions were initiated by the addition of NADPH (final concentration 1 mM). At 0, 15, and 30 min, aliquots were removed from each incubation and quenched in 3 volumes of ice-cold methanol containing olomoucine (Sigma-Aldrich, Dorset, UK) as an internal standard. […] The percentage metabolized was calculated by comparing peak area ratio (peak area test compound/peak area of internal standard) at t = 15 and 30 min versus t = 0 min.

[3] = Microsomal incubations, human liver microsomes; type: in vitro ADME; conditions: 1 μM
Experimental: as §2

[4] = PAMPA parallel artificial membrane permeability assay; conditions: for recovery at 16 h, 10 µM / Papp at 16 h, 10 μM: PAMPA
Experimental: (§3) Passive diffusion was estimated using the PAMPA method. […] The donor plate was a MultiScreen-IP Plate with 0.45 μm hydrophobe Immobilon-P Membrane (Millipore, #MAIPNTR10) and the acceptor plate was a MultiScreen 96-well Transport Receiver Plate (Millipore, #MATRNPS50). […] Acceptor pH was 7.4. All samples were analyzed against an external, matrix-matched, standard curve by LC-MS/MS with a Waters (Elstree, Herts. UK) Acquity H-class LC system coupled to a Waters TQ-S mass spectrometer. Permeability values (cm/s) were calculated using the following equation: [drawing 2] and VD = volume of donor; VA = volume of acceptor; area = surface area of the membrane · porosity.

in vitro = conditions: PAMPA
Experimental: as §3

[5] = pH 5, PAMPA Papp pH 5, donor pH 5, 10 µM
[6] = pH 5, PAMPA Permeability Class pH 5, donor pH 5, 10 µM
[7] = pH 6.5, PAMPA Papp pH 6.5, donor pH 6.5, 10 µM
[8] = pH 6.5, PAMPA Permeability Class pH 6.5, donor pH 6.5, 10 µM
[9] = pH 7.4, PAMPA Papp pH 7.4, donor pH 7.4, 10 µM

T1 sequence (Q5VTY9 whole entry): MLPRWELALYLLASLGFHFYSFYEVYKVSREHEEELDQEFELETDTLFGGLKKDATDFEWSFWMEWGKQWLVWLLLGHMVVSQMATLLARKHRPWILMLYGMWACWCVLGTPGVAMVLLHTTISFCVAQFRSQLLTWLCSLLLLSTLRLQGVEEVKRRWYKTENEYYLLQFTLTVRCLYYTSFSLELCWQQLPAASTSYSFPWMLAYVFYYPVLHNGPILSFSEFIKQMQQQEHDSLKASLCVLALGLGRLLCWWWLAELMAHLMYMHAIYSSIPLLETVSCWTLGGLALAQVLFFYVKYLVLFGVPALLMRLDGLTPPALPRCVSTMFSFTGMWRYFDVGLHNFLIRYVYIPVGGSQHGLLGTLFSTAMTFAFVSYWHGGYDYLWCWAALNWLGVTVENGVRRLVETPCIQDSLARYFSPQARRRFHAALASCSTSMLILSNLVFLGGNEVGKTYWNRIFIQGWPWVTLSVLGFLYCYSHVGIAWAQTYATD

SMILES	inhibition at 25 µM (purified HHAT) [%]	inhibition at 50 µM (purified HHAT) [%]	IC50 (purified HHAT) [µM]	CC50 at 72 h [1] [µM]	viability at 72 h, 12.5 µM [1] [%]	viability at 72 h, 25 µM [1] [%]	MLM % metabolized after 15 min [2]	MLM % metabolized after 30 min [2] [%]	HLM % metabolized after 15 min [3] [%]	HLM % metabolized after 30 min [3] [%]	recovery at 16 h, 10 µM ([4]; pH 5) [%]	Papp at 16 h, 10 μM [4, 5] [×10⁻⁶ cm/s]	Papp at 16 h, 10 μM [4, 6] [×10⁻⁶ cm/s]	recovery at 16 h, 10 µM ([4]; pH 6.5) [%]	Papp at 16 h, 10 μM [4, 7] [×10⁻⁶ cm/s]	Papp at 16 h, 10 μM [4, 8] [×10⁻⁶ cm/s]	recovery at 16 h, 10 µM ([4]; pH 7.4) [%]	Papp at 16 h, 10 μM [4, 9] [×10⁻⁶ cm/s]	PAMPA passive permeability ([4]; pH 7.4)	also measured
CC(=O)N1CCc2ccccc2C1c1ccccc1 (stereo not shown) [Compound 37, 1-(1-Phenyl-3,4-dihydroisoquinolin-2(1H)-yl)ethan-1-one]	55 ± 7	53 ± 3	> 25	47.9	101 ± 5	94 ± 6	94.6% and > 90%	99.8	45.2	55.9	95	> 200	> 20	92	> 200	> 20	89	> 200	high passive permeability	CC50 (HEK293a SHH+ cells; 72 h, read-out: MTS Assay (HEK293a SHH+) CC50 (CI95)): > 50 µM; Papp at 16 h, 10 μM ([4]; pH 7.4, PAMPA Permeability Class pH 7.4, donor pH 7.4, 10 µM): > 20 ×10⁻⁶ cm/s; PAMPA permeability ([4]; over the full pH range tested): high permeability
CCC(C)CNCC(=O)N1CCc2ccccc2C1c1ccccc1 (stereo not shown) [Compound 38, 2-((2-Methylbutyl)amino)-1-(1-phenyl-3,4-dihydroisoquinolin-2(1H)-yl)ethan-1-one]	91 ± 5	95 ± 5	7.01	8.1	69 ± 4	33 ± 6	100.0% and > 90%	100.0	30.3	49.2	91	1.3	< 5	45	24.4	> 20	17	53.9	high passive permeability	LLEAcyl-cLIP (purified HHAT; from Acyl-cLIP IC50 and clogDpH7.4): 2.82; toxicity to HEK293a SHH+ cells (HEK293a SHH+ cells): toxic
Cc1cc(=O)n(-c2ccccc2)n1C [Antipyrine]	–	–	–	–	–	–	–	–	–	–	–	–	–	–	–	–	–	–	–	recovery at 16 h, 10 µM (in vitro; pH 5): 109%; Papp at 16 h, 10 μM (in vitro; pH 5, PAMPA Papp pH 5): 6.5 ×10⁻⁶ cm/s; Papp at 16 h, 10 μM (in vitro; pH 5, PAMPA Permeability Class pH 5): 5 to 20 ×10⁻⁶ cm/s; recovery at 16 h, 10 µM (in vitro; pH 6.5): 119%; Papp at 16 h, 10 μM (in vitro; pH 6.5, PAMPA Papp pH 6.5): 6.6 ×10⁻⁶ cm/s; Papp at 16 h, 10 μM (in vitro; pH 6.5, PAMPA Permeability Class pH 6.5): 5 to 20 ×10⁻⁶ cm/s; recovery at 16 h, 10 µM (in vitro; pH 7.4): 145%; Papp at 16 h, 10 μM (in vitro; pH 7.4, PAMPA Papp pH 7.4): 7.3 ×10⁻⁶ cm/s; Papp at 16 h, 10 μM (in vitro; pH 7.4, PAMPA Permeability Class pH 7.4): 5 to 20 ×10⁻⁶ cm/s
